For data set [1], the target named is T1, human OCT2 (Homo sapiens, UniProt O15244).
T1 sequence (O15244 1-555): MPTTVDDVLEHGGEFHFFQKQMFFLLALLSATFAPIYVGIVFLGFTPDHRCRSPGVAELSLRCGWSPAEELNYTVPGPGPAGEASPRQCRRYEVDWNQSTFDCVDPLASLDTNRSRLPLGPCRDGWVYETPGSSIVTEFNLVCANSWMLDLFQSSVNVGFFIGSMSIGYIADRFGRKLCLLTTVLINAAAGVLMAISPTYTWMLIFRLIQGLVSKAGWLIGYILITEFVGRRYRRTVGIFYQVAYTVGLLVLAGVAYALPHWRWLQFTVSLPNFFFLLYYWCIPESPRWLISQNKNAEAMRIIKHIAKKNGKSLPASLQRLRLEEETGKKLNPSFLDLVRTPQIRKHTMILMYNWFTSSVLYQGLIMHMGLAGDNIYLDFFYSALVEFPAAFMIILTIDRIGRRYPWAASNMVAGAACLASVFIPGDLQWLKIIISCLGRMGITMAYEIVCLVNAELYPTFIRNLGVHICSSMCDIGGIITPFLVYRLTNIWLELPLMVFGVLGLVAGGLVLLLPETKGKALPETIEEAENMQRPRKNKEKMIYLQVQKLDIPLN
Kind of data set: Uptake trans-stimulation assay of OCT2-mediated DiASP uptake in HEK-OCT2 cells. Format: cell-based. On the set-up: host or cells: HEK293 (HEK-OCT2). As to conditions: for Trans-modulation of OCT2-mediated DiASP uptake (in words): HEK-OCT2 cells preloaded 30 min with substrate, 0.01–10 mM or 0.1–100 µM range. On the procedure: Uptake trans-stimulation assays were performed as schematically depicted in Figure 4.
Figure 4 Schematic representation of the various steps of the trans-stimulation assay performed for investigating OCT2 substrates (created with biorender.com). Step 1 corresponds to the initial incubation of cells without (Control) or with candidate substrate for 30 min at 37 °C. Step 2 consists of the incubation of cells with the reference tracer substrate (DiASP) for 5 min at 37 °C. Step 3 is the measurement of cellular accumulation of DiASP through spectrofluorimetry.
(§1) They were cultured in Dulbecco’s modified Eagle medium (DMEM) (Life Technologies, Carlsbad, CA, USA), supplemented with 10% (vol/vol) fetal calf serum, 10 IU/mL penicillin, 10 μg/mL streptomycin, 1% non-essential amino acids, and 1 μg/mL insulin, as already reported.
OCT2 trans-stimulation assays were performed through monitoring cellular uptake of the tracer substrate DiASP. As schematically depicted in Figure 4, HEK-OCT2 cells were first incubated in the absence (control) or presence of different concentrations of OCT2 substrates for 30 min at 37 °C in the transport assay medium described above. After washing with PBS, cells were re-incubated with 10 µM DiASP for 5 min. Cellular accumulation of the fluorescence dye was next determined by spectrofluorimetry, as reported above. Data were commonly expressed as % of DiASP uptake in control cells, set at 100%, or as fluorescence arbitrary units (FAU)/mg protein.

Data set [2] addresses T1, human OCT2. Kind of data set: Cis-inhibition of OCT2-mediated DiASP uptake in HEK-OCT2 cells. As to the method: as §1
Cis-inhibition of OCT2 activity was analysed as previously described. Briefly, HEK-OCT2 cells were incubated with 10 µM DiASP, in the absence (control) of the presence of 100 µM amitriptyline (used here as a reference inhibitor of OCT2 activity) or of various concentrations of the OCT2 substrates, for 5 min. The transport assay medium consisted of 5.3 mM KCl, 1.1 mM KH2PO4, 0.8 mM MgSO4, 1.8 mM CaCl2, 11 mM dextrose, 10 mM HEPES, and 136 mM NaCl, adjusted to pH = 7.4. Next, cells were washed with phosphate-buffered saline (PBS) and lysed in distilled water. Intracellular accumulation of DiASP was then determined by spectrofluorimetry using a PerkinElmer Enspire spectrofluorometer (Waltham, MA, USA); excitation and emission wavelengths were 485 nm and 607 nm, respectively. DiASP accumulation values were thereafter normalized to total protein content, determined by the Bradford method.
IC50 values of OCT2 substrates towards OCT2-mediated uptake of DiASP and the corresponding 95% confidence intervals were determined from nonlinear regression of concentration-response data, based on the four-parameter logistic function. They were calculated using Prism 9.3 software (GraphPad Software, San Diego, CA, USA), through the following Equation (2):(2) A = 100/1 + 10^OCT2 substrate − LogIC50 × Hill slope where A = the percentage of transporter activity for a given concentration of OCT2 substrate determined as described in Equation (1), [OCT2 substrate] = OCT2 substrate concentration in the transport assay medium, and Hill slope = a coefficient describing the steepness of the curve.

Another data set concerns OCT3 (SLC22A3). On the set-up: method as in PMID 12538837. Particulars: cited from earlier work.
Another data set concerns OCT2. As to conditions: cited from earlier work; for Trans-stimulation of OCT2 activity: radiolabelled MPP+ as tracer substrate; for Trans-stimulation of OCT2-mediated MPP+ uptake: MPP+ as tracer.
The test system of another data set is HEK-MOCK cells. As to the kind of experiment: Trans-stimulation assay of DiASP uptake in control HEK-MOCK cells. Format: cell-based, human. Particulars: data not shown.
The mark [3] stands for this setting: HEK-OCT2 cells preloaded 30 min 37 °C, washed, then 10 µM DiASP 5 min.
[4] abbreviates: read-out: IC50 towards OCT2-mediated uptake of DiASP (cis-inhibition), HEK-OCT2 cells, 10 µM DiASP, 5 min, 37 °C, 95% CI in brackets.

Where two headings read alike, the source gives them in different places.

Usually IC50 stands for the concentration that inhibits the measured activity by half.

Consider `CC(=O)OCC[N+](C)(C)C` [Acetylcholine, acetylcholine], for which the “Trans-modulation of OCT2-mediated DiASP uptake (in words)” value (“Trans-modulation” for short) on human OCT2 [1] is listed as “trans-stimulate”. At human OCT2 [2], this compound registered an IC50 of 530 µM.

Turning to `NCCCCN=C(N)N` [Agmatine, agmatine], the “Trans-stimulation of OCT3 activity” value in the data set with OCT3 (SLC22A3) is on record as “trans-stimulate”. On human OCT2 [1] (setting [3]), the “Loading concentration that significantly trans-stimulates DiASP uptake” value is given as 0.1 mM and the “Lowest trans-inhibiting concentration towards DiASP uptake” value is 10 mM. In addition, on human OCT2 [1], the “Trans-modulation” value is listed as “trans-stimulate”. At human OCT2 [2], this compound showed an IC50 of 410 µM.

On to `CCN1CCCC1CNC(=O)c1cc(S(=O)(=O)CC)c(N)cc1OC` (centres unmarked) [Amisulpride, amisulpride], for which the IC50 against human OCT2 [2] was determined as 40 µM.

On to `C[N+](C)(C)CCO` [Choline, choline], for which, in the data set with OCT2, the “Trans-stimulation of OCT2 activity” value was “trans-stimulate”. For the same compound, the “Loading concentration that significantly trans-stimulates DiASP uptake” value at human OCT2 [1] (setting [3]) worked out at 1 mM. Also, the “Trans-modulation” value at human OCT2 [1] was “trans-stimulate”. At human OCT2 [2], this compound gave an IC50 of 1330 µM.

Turning to `CN/C(=N/CCSCc1nc[nH]c1C)NC#N` [Cimetidine, cimetidine], the “Trans-stimulation of OCT2-mediated MPP+ uptake” value with OCT2 is “failed to trans-stimulate”. On human OCT2 [1] (setting [3]), the “Lowest trans-inhibiting concentration towards DiASP uptake” value is given as 10 mM. The “Trans-modulation” value on human OCT2 [1] is “failed to trans-stimulate”. Inhibition on human OCT2 [2] was half-maximal at 79.6 µM (IC50).

Take `NCCc1ccc(O)c(O)c1` [Dopamine, dopamine]: the “Lowest trans-inhibiting concentration towards DiASP uptake” value at human OCT2 [1] (setting [3]) was 10 mM. The IC50 on human OCT2 [2] stood at 2390 µM.

With `CNC[C@H](O)c1ccc(O)c(O)c1` [Epinephrine, epinephrine], at human OCT2 [1] (setting [3]), the “Lowest trans-inhibiting concentration towards DiASP uptake” value is recorded as 1 mM. The half-maximal inhibitory concentration (IC50) at human OCT2 [2] was 1490 µM.

As to `Nc1ccn([C@@H]2CS[C@H](CO)O2)c(=O)n1` [Lamivudine, lamivudine], the “Lowest trans-inhibiting concentration towards DiASP uptake” value at human OCT2 [1] was determined as 10 mM. Moreover, the midpoint of inhibition against human OCT2 [2], the IC50, lay at 1900 µM.

As to `C[n+]1ccc(-c2ccccc2)cc1` [MPP^+, 1-methyl-4-phenyl pyridinium], in the data set on OCT2, the “Trans-stimulation of OCT2-mediated MPP+ uptake” value was “failed to trans-stimulate”. For the same compound, the “Trans-modulation” value at human OCT2 [1] is recorded as “failed to trans-stimulate”. In addition, the concentration for half-maximal inhibition (IC50) on human OCT2 [2] (setting [4]) was found to be 0.91 µM.

Regarding `CN(C)C(=N)N=C(N)N` [Metformin, metformin], the “Trans-stimulation of DiASP uptake in control HEK-MOCK cells” value in the data set with HEK-MOCK cells is “failed to significantly trans-stimulate”. In addition, in the data set on OCT2, the “Trans-stimulation of OCT2 activity” value is on record as “trans-stimulate”. The “Trans-modulation” value at human OCT2 [1] is on record as “trans-stimulate”. Further, inhibition against human OCT2 [2] was half-maximal at 1140 µM (IC50).

For the compound `COCCn1c2c([n+](Cc3cnccn3)c1C)C(=O)c1ccccc1C2=O` [Sepantronium, sepantronium], the “Lowest trans-inhibiting concentration towards DiASP uptake” value at human OCT2 [1] (setting [3]) was 0.001 mM. The half-inhibitory concentration (IC50) at human OCT2 [2] was 7.04 µM.

As for `NCCc1c[nH]c2ccc(O)cc12` [Serotonin, serotonin], on human OCT2 [1] (setting [3]), the “Lowest trans-inhibiting concentration towards DiASP uptake” value is given as 1 mM. The IC50 at human OCT2 [2] is 180 µM.

With `CC[N+](CC)(CC)CC` [TEA, tetra-ethylammonium], the IC50 on human OCT2 [2] (setting [4]) was determined as 180 µM.

Regarding `Cc1ncc(C[n+]2csc(CCO)c2C)c(N)n1` [Thiamine, thiamine], at human OCT2 [1] (setting [3]), the “Lowest trans-inhibiting concentration towards DiASP uptake” value was found to be 10 mM. The compound also had a half-inhibitory concentration (IC50) against human OCT2 [2] of 270 µM.

`CN(C)CCC=C1c2ccccc2CCc2ccccc21` [amitriptyline]: the “Effect on metformin-stimulated uptake of DiASP” value at human OCT2 [1] (100 µM amitriptyline during DiASP step, cells preloaded with 10 mM metformin 30 min) is listed as “fully suppressed”. In addition, on human OCT2 [2] (100 µM amitriptyline, 10 µM DiASP 5 min 37 °C), the “Effect on uptake of DiASP in HEK-OCT2 cells not preloaded with metformin” value was “abolished”.

The values above are taken from article PMC8657912, “Substrate-Dependent Trans-Stimulation of Organic Cation Transporter 2 Activity” (International Journal of Molecular Sciences, 2021).
